Test results reported in patent US4064351A, “9-OXO-15 .xi.-HYDROXY-20-ALKYLIDENEPROST-13(TRANS)-ENOIC ACID DERIVATIVES” (Sankyo Company Limited, priority 1974, dated 1977).

What was measured:
[1] = tested on: gastric secretion (stomach of a male rat); assay: Inhibition of gastric secretion (tetragastrin-stimulated, perfused stomach of anesthetized rat; dose raising perfusate pH by 1.0); format: in vivo, Donryu strain); conditions: intravenous administration for 30 minutes; urethane-anesthetized rat; tetragastrine 10 μg/kg/hr
Experimental: The method employed was essentially same as described by M. N. Ghosh and H. O. Schild in British Journal of Pharmacology and Chemotherapy, vol. 13, 54-61 (1958). Through the stomach of a male rat (Donryu strain) anesthetized by administration of urethane was perfused a physiological saline solution containing a small amount of sodium hydroxide at a rate of 1 ml/min. Then 10 μg/kg/hr of a gastric secretion stimulating agent, tetragastrine, was continuously injected into the vein of said rat until pH of the outflowing perfusate reached approximately 3 and said value remained. Thereupon, a certain amount of the test compounds was administered at a certain rate into the vein for 30 minutes, and pH of the outflowing perfusate was measured. The measurement was repeated with variation of the administering amount.

[2] = tested on: bronchodilating activity in presence of a β-adrenergic blocking agent; assay: Inhibition of the bronchodilating activity by a β-adrenergic blocking agent
[3] = tested on: air-way resistance in guinea pigs; assay: Bronchodilating activity: inhibition of histamine-induced increase in air-way resistance (variant Konzett-Rossler method); format: in vivo, guinea pig; conditions: Cavia porcellus; intravenous (method; head prints i.r.); histamine 2 - 3 μg/kg i.v.; parentheses = 95% confidence limit; read-out: 50% Inhibition Dose (ID50) of increase of air-way resistance in guinea pigs
Experimental: The test compounds were administered through intravenous injection to a guinea pig (body weight: 400 - 600 g) anesthetized by administration of sodium pentobarbital, and 2 - 3 μg/kg of histamine was administered through intravenous injection. Inhibitory ratio of increase in air-way resistance was determined by the variant method of Konzett-Rossler method [Archiv fur Experimentelle Pathologie und Pharmakologie, vol. 195, 71 (1940)].

Structure (SMILES): CC(C)=CCCC(C)C[C@H](O)/C=C/[C@H]1[C@H](O)CC(=O)[C@@H]1C/C=C\CCCC(=O)O (relative stereo) [Compound B, 9-oxo-11α, 15α-dihydroxy-17β-methyl-20-isopropylideneprost-5-(cis), 13(trans)-dienoic acid]
- Dose needed to increase the pH of the outflowing perfusate by 1.0 [1]: 0.070 mg/kg/hr

Structure (SMILES): CC(C)=CCCC(C)CC(O)/C=C/C1C(O)CC(=O)C1CCCCCCC(=O)O (stereo not drawn) [Compound A, 9-oxo-11α,15α-dihydroxy-17β-methyl-20-isopropylideneprost-13(trans)-enoic acid]
- Dose needed to increase the pH of the outflowing perfusate by 1.0 [1]: 0.074 mg/kg/hr

Structure (SMILES): CC(C)NCC(O)c1ccc(O)c(O)c1 (stereo not shown) [Isoproterenol]
- inhibition of bronchodilating activity by a β-adrenergic blocking agent (in words) [2]: inhibits

Structure (SMILES): CCCCC[C@H](O)/C=C/[C@H]1[C@H](O)CC(=O)[C@@H]1CCCCCCC(=O)O [PGE1, prostaglandin E1]
- ED50 [3]: 0.14 µg/kg
- Dose needed to increase the pH of the outflowing perfusate by 1.0 [1]: 0.086 mg/kg/hr

Structure (SMILES): CCCCC[C@H](O)/C=C/[C@H]1[C@H](O)CC(=O)[C@@H]1C/C=C\CCCC(=O)O [PGE2]
- ED50 [3]: 0.21 µg/kg

Structure (SMILES): CC(C)(C)NCC(O)c1ccc(O)c(CO)c1 (stereo not shown) [Salbutanol]
- inhibition of bronchodilating activity by a β-adrenergic blocking agent (in words) [2]: inhibits
